According to ChEMBL document CHEMBL1201862, “PubChem BioAssay data set” (2004):
The source made the active and inactive calls.

Columns and labels:
[1] = Luminescent dose response cell-based high throughput screening assay for inhibitors of the Janus kinase 2 mutant JAK2V617F. [Related pubchem assays: 1446 (Primary screen.), 1521 (Confirmation assay.), 1486 (Counter screen.)]; assay type: functional
[2] = Intein inhibitors as potential Tuberculosis drugs, a cytotoxicity screen. [Related pubchem assays (depositor defined):AID2221, AID2223, AID434968, AID435010, AID449749, AID449750, AID489010]; assay type: functional
[3] = cytotoxicity in HEK-293T cells, dose response, cytotoxicity control for BCR NF-kB inhibitor project, luminescence, B-cell screen hits (AID 489021); assay type: functional, cell-based;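 further: HEK-293T cells carrying an NF-kB luciferase reporter; cells exposed to compound for about 14 hours before viability readout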
[4] = target: T1, Replicative DNA helicase DnaB (Mycobacterium tuberculosis, UniProt P9WMR3); assay: DnaB intein splicing inhibitors, dose response, biochemical, cell-free fluorescence (AID 449749); assay type: functional
T1 sequence (P9WMR3 whole entry): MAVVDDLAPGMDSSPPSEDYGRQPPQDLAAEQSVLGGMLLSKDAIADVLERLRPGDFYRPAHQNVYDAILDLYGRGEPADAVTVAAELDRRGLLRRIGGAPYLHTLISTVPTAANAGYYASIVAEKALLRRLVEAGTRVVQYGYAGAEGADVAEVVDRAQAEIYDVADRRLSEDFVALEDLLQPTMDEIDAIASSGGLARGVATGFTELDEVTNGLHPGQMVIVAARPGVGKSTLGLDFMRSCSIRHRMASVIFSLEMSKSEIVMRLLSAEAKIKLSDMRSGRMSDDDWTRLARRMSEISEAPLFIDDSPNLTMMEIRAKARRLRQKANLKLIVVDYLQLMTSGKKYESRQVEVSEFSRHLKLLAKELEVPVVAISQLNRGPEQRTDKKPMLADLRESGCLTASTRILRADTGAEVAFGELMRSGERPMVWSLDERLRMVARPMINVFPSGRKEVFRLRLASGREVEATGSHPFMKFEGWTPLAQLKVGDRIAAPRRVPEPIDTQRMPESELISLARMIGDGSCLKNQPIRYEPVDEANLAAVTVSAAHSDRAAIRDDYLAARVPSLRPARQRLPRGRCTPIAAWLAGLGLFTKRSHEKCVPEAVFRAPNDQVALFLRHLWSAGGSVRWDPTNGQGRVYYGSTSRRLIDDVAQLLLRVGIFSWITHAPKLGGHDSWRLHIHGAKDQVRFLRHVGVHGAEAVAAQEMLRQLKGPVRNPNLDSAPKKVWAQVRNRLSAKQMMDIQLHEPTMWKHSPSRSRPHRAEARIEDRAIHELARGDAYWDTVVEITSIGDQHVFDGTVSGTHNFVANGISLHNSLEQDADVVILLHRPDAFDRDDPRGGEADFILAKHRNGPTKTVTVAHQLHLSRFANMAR

[5] = target: Benomyl/methotrexate resistance protein (Candida albicans, UniProt P28873); assay: CaMdr1 efflux pump inhibitor potency, dose response, singleplex, Cherry Pick1 hits (AID 588608); assay type: functional
Sequence of Benomyl/methotrexate resistance protein (P28873 whole entry): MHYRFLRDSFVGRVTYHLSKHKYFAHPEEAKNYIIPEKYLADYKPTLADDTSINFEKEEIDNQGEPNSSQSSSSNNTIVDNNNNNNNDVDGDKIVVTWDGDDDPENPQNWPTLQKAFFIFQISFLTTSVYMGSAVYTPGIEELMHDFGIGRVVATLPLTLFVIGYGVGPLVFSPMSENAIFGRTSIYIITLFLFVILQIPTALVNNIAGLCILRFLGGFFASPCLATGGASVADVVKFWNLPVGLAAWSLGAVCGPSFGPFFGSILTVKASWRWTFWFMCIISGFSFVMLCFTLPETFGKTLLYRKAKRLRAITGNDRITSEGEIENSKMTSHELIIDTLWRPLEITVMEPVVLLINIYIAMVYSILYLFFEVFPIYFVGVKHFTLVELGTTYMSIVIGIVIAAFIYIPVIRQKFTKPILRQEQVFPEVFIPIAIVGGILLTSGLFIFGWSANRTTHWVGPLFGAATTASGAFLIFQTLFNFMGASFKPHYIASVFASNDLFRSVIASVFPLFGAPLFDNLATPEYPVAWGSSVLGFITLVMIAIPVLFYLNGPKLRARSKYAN

Protein RecA = target: T2, Protein RecA (Mycobacterium tuberculosis, UniProt P9WHJ3); assay: Fluorescence Cell-Free Homogeneous Dose Retest to Identify Inhibitors of RecA-Intein Splicing Activity. [Related pubchem assays (depositor defined):AID2097, AID2223, AID489010, AID492950]; assay type: functional
T2 sequence (P9WHJ3 whole entry): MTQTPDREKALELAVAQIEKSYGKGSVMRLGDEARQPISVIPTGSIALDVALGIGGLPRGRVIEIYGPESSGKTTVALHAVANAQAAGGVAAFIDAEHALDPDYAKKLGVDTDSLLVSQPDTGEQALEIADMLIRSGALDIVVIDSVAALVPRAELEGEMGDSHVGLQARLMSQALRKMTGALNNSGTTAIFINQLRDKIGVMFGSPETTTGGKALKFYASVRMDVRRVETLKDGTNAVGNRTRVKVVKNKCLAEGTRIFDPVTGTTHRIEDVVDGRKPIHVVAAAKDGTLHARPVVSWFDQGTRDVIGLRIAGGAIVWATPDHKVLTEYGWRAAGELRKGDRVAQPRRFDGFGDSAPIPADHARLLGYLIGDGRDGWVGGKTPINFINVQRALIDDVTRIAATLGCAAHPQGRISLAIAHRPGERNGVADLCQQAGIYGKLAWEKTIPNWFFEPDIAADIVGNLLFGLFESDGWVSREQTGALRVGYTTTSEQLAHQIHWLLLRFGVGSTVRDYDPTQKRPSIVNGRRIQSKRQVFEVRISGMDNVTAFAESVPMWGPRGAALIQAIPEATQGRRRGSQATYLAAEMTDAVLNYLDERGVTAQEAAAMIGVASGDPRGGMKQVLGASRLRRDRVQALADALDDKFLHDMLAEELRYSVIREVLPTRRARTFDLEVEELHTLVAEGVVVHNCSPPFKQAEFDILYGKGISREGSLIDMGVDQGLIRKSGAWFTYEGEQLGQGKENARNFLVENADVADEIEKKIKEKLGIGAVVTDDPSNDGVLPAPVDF

Vero = assay: cells; assay type: functional; details: Chlorocebus sabaeus
[6] = target: Sphingosine 1-phosphate receptor 4 (Homo sapiens, UniProt O95977); assay: S1P4 receptor agonists, human, late-stage follow-up, cell-based, fluorescence, synthesized compounds (AID 463107); assay type: functional
Sequence of Sphingosine 1-phosphate receptor 4 (O95977 whole entry): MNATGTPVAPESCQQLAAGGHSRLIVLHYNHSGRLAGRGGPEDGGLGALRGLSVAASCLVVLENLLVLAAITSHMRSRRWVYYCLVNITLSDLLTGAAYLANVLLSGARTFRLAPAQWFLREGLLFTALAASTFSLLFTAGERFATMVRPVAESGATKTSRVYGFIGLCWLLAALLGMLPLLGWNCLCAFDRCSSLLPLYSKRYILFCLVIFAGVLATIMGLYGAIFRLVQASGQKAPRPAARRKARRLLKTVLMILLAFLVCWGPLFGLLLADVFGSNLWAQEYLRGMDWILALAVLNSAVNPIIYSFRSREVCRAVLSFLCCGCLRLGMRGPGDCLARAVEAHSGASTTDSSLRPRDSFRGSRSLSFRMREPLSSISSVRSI

BJ [7] = assay: cytotoxicity toward BJ-TERT fibroblasts, dose response, cell-based, RAS-independent, luminescence (AID 1933); assay type: functional; details: Homo sapiens
BJ [8] = assay: cells; assay type: functional, cell-based; details: Homo sapiens
BJ [9] = assay: cytotoxicity toward BJ-TERT-LT-ST fibroblasts, dose response, cell-based, RAS-independent, luminescence (AID 1935); assay type: functional; details: Homo sapiens;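 further: BJ fibroblasts immortalized with TERT plus LT and ST oncogenes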
[10] = cytotoxicity toward DRD oncogenic fibroblasts, dose response, cell-based, non-viral oncogenic, luminescence (AID 1934); assay type: functional; details: Homo sapiens
Bcl-2-related protein A1 = target: T3, Bcl-2-related protein A1 (Mus musculus, UniProt Q07440); assay type: functional;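 further: confirmatory dose–response counterscreen on Bfl-1, used to check hits from a UBC13 polyubiquitin inhibitor campaign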
T3 sequence (Q07440 whole entry): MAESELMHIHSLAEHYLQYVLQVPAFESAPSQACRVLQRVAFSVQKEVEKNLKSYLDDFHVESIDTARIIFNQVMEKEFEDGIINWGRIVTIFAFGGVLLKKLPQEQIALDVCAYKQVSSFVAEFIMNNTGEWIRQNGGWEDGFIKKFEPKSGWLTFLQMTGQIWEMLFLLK

[11] = target: T4, Ubiquitin-conjugating enzyme E2 N (Homo sapiens, UniProt P61088); assay type: functional
T4 sequence (P61088 whole entry): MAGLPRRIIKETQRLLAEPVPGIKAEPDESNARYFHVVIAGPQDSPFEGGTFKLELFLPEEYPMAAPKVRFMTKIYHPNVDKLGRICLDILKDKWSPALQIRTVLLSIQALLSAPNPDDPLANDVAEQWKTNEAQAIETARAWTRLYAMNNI

[12] = target: T4, Ubiquitin-conjugating enzyme E2 N; assay type: functional; remark: listed apart in the source
[13] = target: T5, Type-1 angiotensin II receptor (Homo sapiens, UniProt P30556); assay: AT1 receptor agonists, dose response, selectivity assay for APJ receptor agonist project, cell-based, uHTS hits (AID 488865); assay type: functional;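 further: beta-arrestin recruitment to AT1 measured by enzyme fragment complementation luminescence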
T5 sequence (P30556 whole entry): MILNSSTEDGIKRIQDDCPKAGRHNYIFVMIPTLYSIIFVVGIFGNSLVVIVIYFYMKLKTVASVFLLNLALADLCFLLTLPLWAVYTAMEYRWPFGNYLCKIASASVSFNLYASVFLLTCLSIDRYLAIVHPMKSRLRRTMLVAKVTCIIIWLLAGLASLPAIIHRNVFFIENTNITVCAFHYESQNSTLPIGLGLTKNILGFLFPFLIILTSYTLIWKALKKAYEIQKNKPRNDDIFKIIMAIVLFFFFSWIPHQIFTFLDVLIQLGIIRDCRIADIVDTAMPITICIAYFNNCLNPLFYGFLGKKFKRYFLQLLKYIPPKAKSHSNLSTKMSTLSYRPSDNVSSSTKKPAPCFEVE

[14] = target: T6, Microphthalmia-associated transcription factor (Homo sapiens, UniProt O75030); assay: MITF Measured in Cell-Based System Using Plate Reader - 2084-01_Inhibitor_DoseNoFile_CherryPick_Activity_Set2. [Related pubchem assays (depositor defined):AID488944]; assay type: functional
T6 sequence (O75030 whole entry): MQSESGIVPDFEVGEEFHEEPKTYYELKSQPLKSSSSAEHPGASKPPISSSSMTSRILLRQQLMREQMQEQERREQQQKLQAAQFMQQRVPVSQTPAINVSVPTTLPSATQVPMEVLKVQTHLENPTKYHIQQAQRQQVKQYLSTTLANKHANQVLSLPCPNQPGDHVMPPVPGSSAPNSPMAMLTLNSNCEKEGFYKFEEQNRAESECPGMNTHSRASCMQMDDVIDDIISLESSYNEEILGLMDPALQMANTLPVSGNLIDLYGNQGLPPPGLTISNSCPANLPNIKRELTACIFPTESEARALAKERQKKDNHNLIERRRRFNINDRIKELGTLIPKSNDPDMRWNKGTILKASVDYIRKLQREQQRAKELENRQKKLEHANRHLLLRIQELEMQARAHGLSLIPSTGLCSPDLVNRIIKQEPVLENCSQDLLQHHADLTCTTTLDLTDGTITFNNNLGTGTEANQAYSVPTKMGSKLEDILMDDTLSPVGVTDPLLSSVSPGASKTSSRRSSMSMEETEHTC

[15] = target: T6, Microphthalmia-associated transcription factor; assay: TRPM1 promoter luciferase signal decrease, dose response, MITF inhibitor project, cell-based, SK-MEL-5, cherry-picked, set 4 (AID 493102); assay type: functional
[16] = target: T6, Microphthalmia-associated transcription factor; assay: TRPM1 promoter luciferase signal decrease, dose response, MITF inhibitor project, cell-based, SK-MEL-5, cherry-picked, set 3 (AID 493073); assay type: functional
[17] = target: T7, Heat shock factor protein 1 (Mus musculus, UniProt P38532); assay: inhibition of MG132-induced HSE-luciferase signal, confirmation, cell-based, NIH3T3, luminescence, dose retest (AID 2382); assay type: functional;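 further: NIH3T3 fibroblasts with HSF1-driven luciferase reporter stressed by proteasome inhibitor MG132; luminescence from HSF1-driven luciferase expression after 8 hours of MG132 stress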
T7 sequence (P38532 whole entry): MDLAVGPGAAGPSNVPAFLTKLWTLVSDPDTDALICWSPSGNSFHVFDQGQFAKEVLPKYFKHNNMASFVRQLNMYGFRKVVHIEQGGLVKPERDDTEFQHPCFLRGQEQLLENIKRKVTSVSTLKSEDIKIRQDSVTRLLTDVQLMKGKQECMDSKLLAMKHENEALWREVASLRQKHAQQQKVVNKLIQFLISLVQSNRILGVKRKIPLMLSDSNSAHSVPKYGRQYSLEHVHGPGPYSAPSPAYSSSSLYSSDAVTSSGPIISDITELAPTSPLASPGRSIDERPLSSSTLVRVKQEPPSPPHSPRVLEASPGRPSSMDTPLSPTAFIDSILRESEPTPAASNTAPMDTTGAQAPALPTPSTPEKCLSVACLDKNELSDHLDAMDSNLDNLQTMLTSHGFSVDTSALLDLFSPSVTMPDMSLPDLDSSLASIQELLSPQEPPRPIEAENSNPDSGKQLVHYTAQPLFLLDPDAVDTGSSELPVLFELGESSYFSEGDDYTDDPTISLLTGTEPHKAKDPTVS

[18] = growth suppression of PTEN-null colon cells, dose response, cell-based, HCT116 PTEN knockout (AID 1047); assay type: functional;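 further: HCT116 colon tumor cells with PTEN knocked out; cells exposed to compound for 60 hours before readout; potency for loss of cell viability measured by luminescence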
[19] = growth suppression of beta-catenin-knockout colon cells, dose response, cell-based, HCT116, human colon tumor (AID 1045); assay type: functional;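 further: HCT116 colon tumor cells with beta catenin knocked out; cells exposed to compound for 60 hours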
[20] = target: Glutathione S-transferase omega-1 (Homo sapiens, UniProt P78417); assay: GSTO1 inhibitor potency, recombinant enzyme, late-stage follow-up, biochemical, SE-Rh probe, in-gel fluorescence, powder samples (AID 463081); assay type: functional
Sequence of Glutathione S-transferase omega-1 (P78417 whole entry): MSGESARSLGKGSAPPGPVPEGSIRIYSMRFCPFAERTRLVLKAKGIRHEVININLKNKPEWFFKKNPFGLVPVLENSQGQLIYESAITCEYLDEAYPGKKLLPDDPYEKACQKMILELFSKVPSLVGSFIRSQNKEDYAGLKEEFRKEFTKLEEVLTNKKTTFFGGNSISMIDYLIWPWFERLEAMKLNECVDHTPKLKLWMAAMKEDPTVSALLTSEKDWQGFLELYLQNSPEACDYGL

BJ [21] = assay: cytotoxicity toward Ras-transformed BJeLR fibroblasts, dose response, cell-based, alamar blue fluorescence, cherrypicked samples (AID 2631); assay type: functional; details: Homo sapiens;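 further: confirmatory dose-response assay in RAS-dependent BJ fibroblasts engineered with TERT, LT and ST, with cytotoxicity read by fluorescence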
Paired box protein Pax-8 = Paired box protein Pax-8 (Homo sapiens, UniProt Q06710); assay: inhibitors of PAX8-driven TPO luciferase reporter, dose response, RMG-I cells, cherry-pick (AID 687027); assay type: functional, cell-based;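 further: luciferase reporter driven by Pax8 target thyroperoxidase promoter measured by SteadyGlo luminescence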
Sequence of Paired box protein Pax-8 (Q06710 whole entry): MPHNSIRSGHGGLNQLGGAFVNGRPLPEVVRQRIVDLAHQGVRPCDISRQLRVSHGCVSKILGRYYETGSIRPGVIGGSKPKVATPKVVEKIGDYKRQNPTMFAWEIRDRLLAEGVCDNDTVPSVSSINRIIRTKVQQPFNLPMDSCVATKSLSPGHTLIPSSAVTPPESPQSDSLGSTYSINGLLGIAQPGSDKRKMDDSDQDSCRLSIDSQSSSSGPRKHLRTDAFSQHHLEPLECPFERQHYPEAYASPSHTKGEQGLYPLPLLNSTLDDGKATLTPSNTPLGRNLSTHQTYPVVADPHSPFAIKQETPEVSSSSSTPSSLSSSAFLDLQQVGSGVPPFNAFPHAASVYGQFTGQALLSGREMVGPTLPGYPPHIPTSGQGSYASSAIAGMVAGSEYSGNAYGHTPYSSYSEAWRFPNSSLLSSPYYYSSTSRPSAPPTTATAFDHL

[22] = non-specific cell cytotoxicity, dose response, cytotoxicity control for PAX8 inhibitor project, plate reader, dry powder samples (AID 743021); assay type: functional, cell-based

## COc1ccc2nc(C)cc(Sc3nc4ccccc4s3)c2c1
[1]
  IC50: 1910 nM (active)
[2]
  CC50: 26400 nM (active)
[3]
  IC50: > 80000 nM (inactive)
[4]
  AC50: 2870 nM (active)
[5]
  EC50: 479 nM (active)
Protein RecA
  EC50: 2890 nM (active)
Vero
  CC50: 14300 nM (active)

## Cc1ccc(OCCc2ccc(Cl)cc2Cl)c([N+](=O)[O-])n1
[6]
  EC50: 2100 nM (active)

## Cc1cc(C)c2sc(N(CCCN(C)C)C(=O)c3ccc(S(=O)(=O)N4CCc5ccccc5C4)cc3)nc2c1
BJ [7]
  EC50: 1570 nM (active)
BJ [8]
  EC50: 9560 nM (active)
BJ [9]
  EC50: 2540 nM (inconclusive)
[10]
  EC50: 3680 nM (active)
Bcl-2-related protein A1
  IC50: > 20000 nM (inactive)
[11]
  IC50: 10000 nM (active)
[12]
  IC50: 4640 nM (active)
[13]
  EC50: > 100000 nM (inactive)

## CCCCN=c1nc(S)n(-c2ccccc2)c(C)c1C(C)=O
[14]
  AC50: > 350000 nM (inactive)
[15]
  AC50: > 350000 nM (inactive)
[16]
  AC50: > 350000 nM (inactive)

## COc1ccc(C(C(=O)NC2CCCCC2)N(C(=O)CCl)c2cccc(Cl)c2)cc1 (stereo unspecified)
BJ [7]
  EC50: 176 nM (inconclusive)
[17]
  EC50: 691 nM (active)
BJ [8]
  EC50: 987 nM (inconclusive)
[18]
  EC50: 1360 nM (active)
[19]
  EC50: 1090 nM (active)
BJ [9]
  EC50: 4570 nM (active)
[10]
  EC50: 518 nM (active)
[20]
  IC50: 32 nM (active)
BJ [21]
  EC50: 122 nM (active)
Protein RecA
  EC50: 202 nM (active)
Paired box protein Pax-8
  AC50: < 500 nM (active)
[22]
  AC50: 1020 nM (active)
